Patent publication US10266497B2 (ABIDE THERAPEUTICS, INC., priority 2017, dated 2019)

Tests used:
[1] = molecular target: T1, FAAH (Homo sapiens, UniProt O00519); test: In vitro competitive activity-based protein profiling, FAAH, human; conditions: for inhibition at 1 µM: read-out: FAAH % inh. 1 μM (human)
T1 sequence (O00519 1-579): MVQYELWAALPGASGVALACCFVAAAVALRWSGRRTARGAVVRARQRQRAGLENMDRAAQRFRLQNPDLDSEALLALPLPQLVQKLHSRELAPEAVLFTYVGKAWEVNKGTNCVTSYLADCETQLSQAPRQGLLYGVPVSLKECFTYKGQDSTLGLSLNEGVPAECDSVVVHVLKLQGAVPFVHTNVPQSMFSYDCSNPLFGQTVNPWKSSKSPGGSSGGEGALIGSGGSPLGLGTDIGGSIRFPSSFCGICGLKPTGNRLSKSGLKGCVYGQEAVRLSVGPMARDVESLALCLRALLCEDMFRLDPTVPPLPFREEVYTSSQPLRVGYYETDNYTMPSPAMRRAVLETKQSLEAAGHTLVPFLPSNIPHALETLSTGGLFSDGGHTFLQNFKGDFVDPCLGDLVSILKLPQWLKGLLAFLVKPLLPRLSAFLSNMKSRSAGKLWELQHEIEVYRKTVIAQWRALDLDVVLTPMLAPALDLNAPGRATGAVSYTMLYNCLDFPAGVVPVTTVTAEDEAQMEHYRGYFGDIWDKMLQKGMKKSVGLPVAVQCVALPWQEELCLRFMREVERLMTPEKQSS
Method: Biological Evaluation In Vitro Competitive Activity-Based Protein Profiling.
Proteomes (mouse brain membrane fraction for mouse assays; human prefrontal cortex membrane fractions for human assays) (50 mL, 1.0 mg/mL total protein concentration) were preincubated with varying concentrations of inhibitors at 37° C. After 30 min, FP-Rh (1.0 mL, 50 mM in DMSO) was added and the mixture was incubated for another 30 min at 37° C. Reactions were quenched with SDS loading buffer (15 μL—4λ) and run on SDS-PAGE.

[2] = molecular target: T2, FAAH (Mus musculus, UniProt O08914); test: In vitro competitive activity-based protein profiling, FAAH, mouse; conditions: read-out: FAAH % inh. 1 μM (mouse)
T2 sequence (O08914 1-579): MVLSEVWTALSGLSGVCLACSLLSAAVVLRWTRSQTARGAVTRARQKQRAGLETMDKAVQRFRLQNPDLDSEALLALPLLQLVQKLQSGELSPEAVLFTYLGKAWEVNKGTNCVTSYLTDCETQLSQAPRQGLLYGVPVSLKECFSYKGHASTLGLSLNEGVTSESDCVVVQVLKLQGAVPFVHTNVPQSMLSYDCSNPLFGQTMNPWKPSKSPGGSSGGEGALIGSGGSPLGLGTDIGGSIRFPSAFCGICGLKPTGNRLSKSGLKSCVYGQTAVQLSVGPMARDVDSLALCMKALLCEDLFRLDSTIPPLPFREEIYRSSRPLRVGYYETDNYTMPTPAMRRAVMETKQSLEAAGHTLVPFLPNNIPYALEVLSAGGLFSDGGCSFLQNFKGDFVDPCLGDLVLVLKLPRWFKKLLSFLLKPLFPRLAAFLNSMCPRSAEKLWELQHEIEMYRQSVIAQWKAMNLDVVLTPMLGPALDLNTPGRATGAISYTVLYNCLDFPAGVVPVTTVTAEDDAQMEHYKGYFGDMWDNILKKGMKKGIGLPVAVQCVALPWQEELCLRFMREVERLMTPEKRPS

[3] = molecular target: T3, MAGL (Homo sapiens, UniProt Q99685); test: In vitro competitive activity-based protein profiling, MAGL, human; conditions: for inhibition at 1 µM: read-out: MAGL % inh. 1 μM (human)
T3 sequence (Q99685 1-303): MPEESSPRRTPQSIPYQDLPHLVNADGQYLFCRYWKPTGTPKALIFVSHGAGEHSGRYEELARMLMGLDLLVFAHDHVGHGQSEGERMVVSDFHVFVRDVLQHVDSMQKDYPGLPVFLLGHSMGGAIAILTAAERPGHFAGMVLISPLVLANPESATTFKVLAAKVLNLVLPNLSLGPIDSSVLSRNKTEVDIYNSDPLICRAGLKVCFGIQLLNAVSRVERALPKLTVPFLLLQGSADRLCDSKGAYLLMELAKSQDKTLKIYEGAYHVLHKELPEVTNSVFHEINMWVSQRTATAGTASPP

[4] = molecular target: T4, MAGL (Mus musculus, UniProt O35678); test: In vitro competitive activity-based protein profiling, MAGL, mouse; conditions: read-out: MAGL % inh. 1 μM (mouse)
T4 sequence (O35678 1-303): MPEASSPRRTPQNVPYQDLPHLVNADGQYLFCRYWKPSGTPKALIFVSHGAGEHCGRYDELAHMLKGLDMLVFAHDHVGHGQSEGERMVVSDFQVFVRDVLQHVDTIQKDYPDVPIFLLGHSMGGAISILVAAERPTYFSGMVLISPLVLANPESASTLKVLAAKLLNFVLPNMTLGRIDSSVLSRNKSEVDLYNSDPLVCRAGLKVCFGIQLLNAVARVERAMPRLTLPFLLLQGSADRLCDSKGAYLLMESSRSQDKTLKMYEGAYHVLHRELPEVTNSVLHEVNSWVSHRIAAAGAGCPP

Compound	inhibition at 1 µM [1] [%]	inhibition at 1 µM [2] [%]	inhibition at 1 µM [3] [%]	inhibition at 1 µM [4] [%]	IC50 [1] [nM]	IC50 [3] [nM]
C[C@@H]1CC[C@H](C)N1c1cc(C(F)(F)F)ccc1CN1CCN(C(=O)n2ccc(C(=O)O)n2)CC1 [Example 94, 1-(4-(2-((2R,5S)-2,5-dimethylpyrrolidin-1-yl)-4-(trifluoromethyl)benzyl)piperazine-1-carbonyl)-1H-pyrazole-3-carboxylic acid]	0 to 25	0 to 25	> 75	> 75		
O=C(O)c1ccn(C(=O)N2CC3CN(Cc4cccc(C(F)(F)F)c4)CC3C2)n1 (stereo not drawn) [Example 122, 1-(5-(3-(trifluoromethyl)benzyl)octahydro-pyrrolo[3,4-c]pyrrole-2-carbonyl)-1H-pyrazole-3-carboxylic acid]	0 to 25	50 to 75	50 to 75	25 to 50		
NC(=O)c1ccn(C(=O)N2CCC3(CCN(Cc4ccc(N5CCCC5)cc4C(F)(F)F)C3)CC2)n1 [Example 195, 1-(2-(4-(pyrrolidin-1-yl)-2-(trifluoromethyl)benzyl)-2,8-diazaspiro[4.5]decane-8-carbonyl)-1H-pyrazole-3-carboxamide]	> 75	> 75	> 75	0 to 25		
O=C(O)c1ccn(C(=O)N2CCC3(CCN(Cc4cnccc4C(F)(F)F)C3)CC2)n1 [Example 127]	0 to 25	0 to 25	> 75	> 75		
O=C(O)c1ccn(C(=O)N2CCC3(CCN(Cc4cccc(OC(F)(F)F)c4)C3)CC2)n1 [Example 153, 1-(2-(3-(trifluoromethoxy)benzyl)-2,8-diazaspiro[4.5]decane-8-carbonyl)-1H-pyrazole-3-carboxylic acid]	0 to 25	25 to 50	> 75	> 75		
Cc1cn(C(=O)N2CCN(Cc3cccc(Oc4ccc(Cl)cc4)c3)CC2)nc1C(=O)O [Example 129, 1-(4-(3-(4-chlorophenoxy)benzyl)piperazine-1-carbonyl)-4-methyl-1H-pyrazole-3-carboxylic acid]	> 75	> 75	> 75	> 75	100 to 1000	
NC(=O)c1ccn(C(=O)N2CCC3(CCN(Cc4ccc(N5CCOCC5)cc4Cl)C3)CC2)n1 [Example 197, 1-(2-(2-chloro-4-morpholinobenzyl)-2,8-diazaspiro[4.5]decane-8-carbonyl)-1H-pyrazole-3-carboxamide]	> 75	> 75	> 75	> 75	100 to 1000	
CN(Cc1cc(Cl)ccc1C(F)(F)F)C1CCN(C(=O)n2ccc(C(=O)O)n2)CC1 [Example 81, 1-(4-((5-chloro-2-(trifluoromethyl)benzyl)(methyl)amino)piperidine-1-carbonyl)-1H-pyrazole-3-carboxylic acid]	50 to 75	0 to 25	> 75	> 75	100 to 1000	
O=C(O)c1nn(C(=O)N2CCC3(CCN(Cc4ccc(N5CCCC5)cc4C(F)(F)F)C3)CC2)cc1C(F)(F)F [Example 150, 1-(2-(4-(pyrrolidin-1-yl)-2-(trifluoromethyl)benzyl)-2,8-diazaspiro[4.5]decane-8-carbonyl)-4-(trifluoromethyl)-1H-pyrazole-3-carboxylic acid]	50 to 75	> 75	25 to 50	25 to 50		
O=C(O)c1ccn(C(=O)N2CCN(Cc3cc(F)cc(Oc4ccc(Cl)cc4)c3)CC2)n1 [Example 161, 1-(4-(3-(4-chlorophenoxy)-5-fluorobenzyl)pipera-zine-1-carbonyl)-1H-pyrazole-3-carboxylic acid]	> 75	> 75	> 75	> 75		
O=C(O)c1nn(C(=O)N2CCN(Cc3ccc(-c4cnc5ccccn45)cc3C(F)(F)F)CC2)cc1Cl [Example 145, 4-chloro-1-(4-(4-(imidazo[1,2-a]pyridin-3-yl)-2-(trifluoromethyl)benzyl)piperazine-1-carbonyl)-1H-pyrazole-3-carboxylic acid]	50 to 75	> 75	> 75	> 75		
O=C(O)c1nn(C(=O)N2CC3CN(Cc4cccc(Oc5ccc(Cl)cc5)c4)CC3C2)cc1Cl (stereo not drawn) [Example 137, 4-chloro-1-(5-(3-(4-chlorophenoxy)benzyl)octahydro-pyrrolo[3,4-c]pyrrole-2-carbonyl)-1H-pyrazole-3-carboxylic acid]	> 75	> 75	> 75	> 75	100 to 1000	100 to 1000
Cc1ccc(CN2CCC3(CCN(C(=O)n4ccc(C(=O)O)n4)CC3)C2)cc1Cl [Example 154, 1-(2-(3-chloro-4-methylbenzyl)-2,8-diazaspiro[4.5]decane-8-carbonyl)-1H-pyrazole-3-carboxylic acid]	0 to 25	0 to 25	> 75	> 75		
O=C(O)c1ccn(C(=O)N2CCC3(CCN(Cc4c(Cl)cccc4C(F)(F)F)C3)CC2)n1 [Example 74, 1-(2-(2-chloro-6-(trifluoromethyl)benzyl)-2,8-diazaspiro[4.5]decane-8-carbonyl)-1H-pyrazole-3-carboxylic acid]	0 to 25	0 to 25	> 75	> 75		
Cc1cc(CO[C@H]2C[C@@H]3CN(C(=O)n4ccc(C(=O)O)n4)C[C@@H]3C2)ccc1C(F)(F)F [Example 172, 1-(trans-5-((3-methyl-4-(trifluoromethyl)benzyl)oxy)octa-hydrocyclopenta[c]pyrrole-2-carbonyl)-1H-pyrazole-3-carboxylic acid]	> 75	50 to 75	> 75	> 75		
Cc1cc(CN2CCC3(CCN(C(=O)n4ccc(C(=O)O)n4)CC3)C2)ccc1C(F)(F)F [Example 155, 1-(2-(3-methyl-4-(trifluoromethyl)benzyl)-2,8-diazaspiro[4.5]decane-8-carbonyl)-1H-pyrazole-3-carboxylic acid]	0 to 25	0 to 25	> 75	> 75	1000 to 10000	100 to 1000
O=C(O)c1ccn(C(=O)N2CCC3(CCN(Cc4ccc(N5CCOCC5)cc4Cl)C3)CC2)n1 [Example 169, 1-(2-(2-chloro-4-morpholinobenzyl)-2,8-diazaspiro[4.5]decane-8-carbonyl)-1H-pyrazole-3-carboxylic acid]	0 to 25	0 to 25	25 to 50	0 to 25		
